In this assay the target is T1, human ACC2 (Homo sapiens, UniProt O00763).
T1 construct: made in house; host or cells: insect cells (baculoviral expression system)
T1 sequence (O00763 129-2458 limits assumed): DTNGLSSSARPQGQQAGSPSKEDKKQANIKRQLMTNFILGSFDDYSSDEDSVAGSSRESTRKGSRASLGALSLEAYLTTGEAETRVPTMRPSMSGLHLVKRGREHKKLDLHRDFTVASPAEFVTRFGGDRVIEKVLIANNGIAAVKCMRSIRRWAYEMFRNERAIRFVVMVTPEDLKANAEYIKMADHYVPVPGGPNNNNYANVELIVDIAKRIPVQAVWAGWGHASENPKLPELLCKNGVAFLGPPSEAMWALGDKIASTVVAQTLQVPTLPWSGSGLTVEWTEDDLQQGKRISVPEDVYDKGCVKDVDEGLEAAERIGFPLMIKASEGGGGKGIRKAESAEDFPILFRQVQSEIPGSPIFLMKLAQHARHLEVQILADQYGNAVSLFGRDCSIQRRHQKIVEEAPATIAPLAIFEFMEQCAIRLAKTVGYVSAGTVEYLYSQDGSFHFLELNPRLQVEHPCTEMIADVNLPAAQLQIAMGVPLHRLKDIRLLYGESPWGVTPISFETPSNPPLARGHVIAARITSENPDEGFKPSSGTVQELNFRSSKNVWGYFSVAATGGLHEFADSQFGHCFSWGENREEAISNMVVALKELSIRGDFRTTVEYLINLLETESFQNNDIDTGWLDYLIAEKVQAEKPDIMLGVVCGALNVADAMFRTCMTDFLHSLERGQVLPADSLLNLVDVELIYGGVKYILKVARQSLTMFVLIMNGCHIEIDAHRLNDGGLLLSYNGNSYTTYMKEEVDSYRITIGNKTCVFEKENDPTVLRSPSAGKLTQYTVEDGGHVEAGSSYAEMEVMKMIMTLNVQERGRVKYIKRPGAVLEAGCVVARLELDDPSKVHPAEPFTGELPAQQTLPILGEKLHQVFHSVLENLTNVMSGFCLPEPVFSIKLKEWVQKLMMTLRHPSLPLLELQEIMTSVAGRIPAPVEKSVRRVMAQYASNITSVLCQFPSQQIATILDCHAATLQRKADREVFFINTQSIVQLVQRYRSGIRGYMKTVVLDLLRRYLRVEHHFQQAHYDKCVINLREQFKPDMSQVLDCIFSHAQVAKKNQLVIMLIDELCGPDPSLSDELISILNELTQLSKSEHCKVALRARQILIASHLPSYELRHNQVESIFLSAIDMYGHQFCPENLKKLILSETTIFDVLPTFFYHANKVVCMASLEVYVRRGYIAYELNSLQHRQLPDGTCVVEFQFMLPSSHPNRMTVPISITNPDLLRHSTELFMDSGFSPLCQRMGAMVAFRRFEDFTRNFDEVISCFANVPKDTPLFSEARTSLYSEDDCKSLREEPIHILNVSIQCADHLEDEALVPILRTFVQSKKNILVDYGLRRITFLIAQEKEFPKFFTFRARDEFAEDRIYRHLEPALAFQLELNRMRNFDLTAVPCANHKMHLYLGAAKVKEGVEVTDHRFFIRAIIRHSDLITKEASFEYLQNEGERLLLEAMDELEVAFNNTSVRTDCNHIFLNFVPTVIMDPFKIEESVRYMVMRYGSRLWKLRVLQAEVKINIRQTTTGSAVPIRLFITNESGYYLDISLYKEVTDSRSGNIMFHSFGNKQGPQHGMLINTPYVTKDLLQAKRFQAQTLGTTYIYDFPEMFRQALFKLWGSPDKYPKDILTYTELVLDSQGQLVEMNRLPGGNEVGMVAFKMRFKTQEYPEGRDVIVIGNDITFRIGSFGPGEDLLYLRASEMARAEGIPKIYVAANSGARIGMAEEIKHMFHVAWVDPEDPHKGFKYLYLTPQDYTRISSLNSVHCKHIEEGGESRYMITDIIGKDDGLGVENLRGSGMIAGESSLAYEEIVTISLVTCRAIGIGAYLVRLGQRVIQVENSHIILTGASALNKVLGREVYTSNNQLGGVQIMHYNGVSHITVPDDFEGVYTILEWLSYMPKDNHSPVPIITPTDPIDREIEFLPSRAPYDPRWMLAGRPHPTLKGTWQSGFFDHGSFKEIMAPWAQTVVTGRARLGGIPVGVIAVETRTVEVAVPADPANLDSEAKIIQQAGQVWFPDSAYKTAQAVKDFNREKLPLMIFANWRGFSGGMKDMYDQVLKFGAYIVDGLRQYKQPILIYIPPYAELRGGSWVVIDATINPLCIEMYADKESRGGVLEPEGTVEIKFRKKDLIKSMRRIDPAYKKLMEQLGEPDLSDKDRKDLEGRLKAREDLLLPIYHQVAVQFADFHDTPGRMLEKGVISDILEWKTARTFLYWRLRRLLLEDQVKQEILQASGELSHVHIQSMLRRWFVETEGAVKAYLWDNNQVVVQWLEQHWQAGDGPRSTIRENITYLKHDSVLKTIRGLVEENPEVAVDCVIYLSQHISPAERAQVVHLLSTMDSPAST
The assay can be described thus: ACC2 assay, spectrophotometric 384 well assay (NADH-linked, coupled lactate dehydrogenase/pyruvate kinase). To be noted: ACC2 assay, hACC2 construct lacking 128 N-terminal amino acids, 25° C., 340 nm; read-out: IC50. In kind it is biochemical. In outline: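 ADP output tracked via pyruvate kinase/lactate dehydrogenase NADH oxidation, slope at 340 nm over 15 min, 25° C, with 500 μM ATP and 200 μM each acetyl-CoA and NADH. Enzyme: insect-cell-expressed human ACC2, N-terminal 128 residues deleted; pH 7.5 Tris with citrate, KHCO3. IC50 from four-parameter regression versus vehicle and no-acetyl-CoA controls.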
`CC(=O)N[C@@H](C)c1ccc(C2CCN(c3ccc(C#N)cn3)CC2)cc1` [Example 4.5]: the IC50 turned out to be 2600 nM.
As to `CC(=O)N[C@@H](C)c1ccc(C2CCN(c3ccc(-c4cccs4)nc3)CC2)cc1` [Example 15.11], the half-maximal inhibitory concentration (IC50) came to 160 nM.
The result for `CC(=O)N[C@@H](C)c1ccc(C2CCN(c3ncc(-c4ccccc4)cn3)CC2)cc1` [Example 10.43] reads 30 nM; that for `CC(=O)N[C@@H](C)c1ccc(C2CCN(c3ccnc(OCC(C)C)n3)CC2)cc1` [Example 11.16], 430 nM.
The result for `CCCCOc1ccc(N2CCC(c3ccc([C@H](C)NC(C)=O)cc3)CC2)c(C#N)c1` [Example 4.201] reads 60 nM.
In the case of `CCOc1ccc(N2CCC(c3ccc([C@H](C)NC(=O)CNC(=O)OC(C)(C)C)cc3)CC2)cc1` [Example 6.49] it was 8300 nM; in that of `CC(=O)N[C@@H](C)c1ccc(C2CCN(c3ncc(C(=O)NC[C@H](O)CO)cn3)CC2)cc1` [Example 18.50], 13300 nM.
As for `COC(=O)N[C@@H](C)c1ccc(C2CCN(c3ccnc(OC(C)C)c3)CC2)cc1` [Example 1.136], the IC50 worked out at 500 nM.
On to `CCOc1ccc(N2CCC(c3ccc([C@H](C)NC(=O)CC(=O)OC)cc3)CC2)cc1` [Example 31.1, (S)-Methyl 3-(1-(4-(1-(4-Ethoxyphenyl)piperidin-4-yl)phenyl)ethylamino)-3-oxopropanoate], for which the IC50 turned out to be 1600 nM.
The result for `CC(=O)N[C@@H](C)c1ccc(C2CCN(c3ncccc3C#N)CC2)cc1` [Example 4.1, (S)—N-(1-{4-[1-(3-Cyanopyridin-2-yl)piperidin-4-yl]phenyl}ethyl)acetamide] reads 2500 nM; that for `CC(=O)N[C@@H](C)c1ccc(C2CCN(c3ccnc(OCC(C)C)c3)CC2)cc1` [Example 19.1, (S)—N-{1-[4-(2′-Isobutoxy-3,4,5,6-tetrahydro-2H-[1,4′]bipyridinyl-4-yl)-phenyl]-ethyl}-acetamide], 110 nM; that for `CCOc1ccc(N2CCC(c3ccc([C@H](C)NC(=O)c4cncnc4)cc3)CC2)cc1` [Example 6.42], 2800 nM.
The result for `CC(=O)N[C@@H](C)c1ccc(C2CCN(c3ncc(OCC4CC4)cc3F)CC2)cc1` [Example 1.104] reads 200 nM.
Turning to `CC(=O)N[C@@H](C)c1ccc(C2CCN(c3ccc(C(C)(C)C)nc3)CC2)cc1` [Example 15.12], the IC50 came out at 2200 nM.
In the case of `CCOc1ccc(N2CCC(c3ccc([C@H](C)NC(C)=O)cc3)CC2)cc1OCC` [Example 1.47] it was 2900 nM.
Consider `CCOc1ccc(N2CCC(c3ccc([C@H](C)NC(=O)C4CC(F)C4)cc3)CC2)cc1` (some centres unmarked) [Example 6.38], for which the IC50 was 90 nM.
The result for `CC(=O)N[C@@H](C)c1ccc(C2CCN(c3ccc(OCC4CCC4)c(Cl)c3)CC2)cc1` [Example 9.45] reads 380 nM; that for `CCCOc1ccc(N2CCC(c3ccc([C@H](C)NC(=O)N(C)C)cc3)CC2)c(F)c1` [Example 1.86], 210 nM.
For `CCOc1ccc(N2CCC(c3ccc([C@H](C)NC(C)=S)cc3)CC2)cc1` [Example 38.1, (S)-N-(1-(4-(1-(4-Ethoxyphenyl)piperidin-4-yl)phenyl)ethyl)ethanethioamide], the IC50 was found to be 430 nM.
The result for `CCCC(C)Oc1ccc(N2CCC(c3ccc([C@H](C)NC(C)=O)cc3)CC2)cc1C#N` (some centres unmarked) [Example 8.57] reads 3200 nM.
The result for `COCCOc1ccc(N2CCC(c3ccc([C@H](C)NC(C)=O)cc3)CC2)cc1F` [Example 8.21] reads 1500 nM.
For `COC(=O)N[C@@H](C)c1ccc(C2CCN(c3ccc4c(c3)OCCO4)CC2)cc1` [Example 1.17], the IC50 came to 450 nM.
The result for `CCC(CC)Oc1cccc(N2CCC(c3ccc([C@H](C)NC(C)=O)cc3)CC2)c1` [Example 9.16] reads 690 nM.
In the case of `CC(=O)N[C@@H](C)c1ccc(C2CCN(c3ncc(C(=O)NC4CC4(F)F)cn3)CC2)cc1` (some centres unmarked) [Example 18.30] it was 5200 nM; in that of `CC(=O)N[C@@H](C)c1ccc(C2CCN(c3ncc(-c4ccc(OC(C)C)c(C)c4)cn3)CC2)cc1` [Example 10.126], 1300 nM; in that of `COC(=O)N[C@@H](C)c1ccc(C2CCN(c3ccc(OCC4CC4)cc3)CC2)cc1` [Example 1.22], 140 nM.
The result for `CCOc1ccc(N2CCC(c3ccc([C@H](C)NS(=O)(=O)CC)cc3)CC2)cc1` [Example 17.2] reads 4200 nM; that for `CC(=O)N[C@@H](C)c1ccc(C2CCN(c3ncc(C(=O)N(C)CCN(C)C)cn3)CC2)cc1` [Example 18.43], 16800 nM; that for `CC(=O)N[C@@H](C)c1ccc(C2CCN(c3ccc(OCC(F)F)cc3)CC2)cc1` [Example 1.164], 770 nM.
Turning to `CCCN(C)C(=O)N[C@@H](C)c1ccc(C2CCN(c3ccc(OCC)cc3)CC2)cc1` [Example 14.54], the IC50 was 1100 nM.
In the case of `CC(=O)N[C@@H](C)c1ccc(C2CCN(c3ncc(C(=O)Nc4cccc(F)c4)cn3)CC2)cc1` [Example 18.2], the IC50 stood at 1400 nM.
For the molecule `CC(=O)N[C@@H](C)c1ccc(C2CCN(c3cc(NC4CC4)ncn3)CC2)cc1` [Example 11.132], the IC50 was determined as 3000 nM.
As to `CC(=O)N[C@@H](C)c1ccc(C2CCN(c3cccc(OCCOC4CC4)c3)CC2)cc1` [Example 9.14], the IC50 came to 270 nM.
The result for `CC(=O)N[C@@H](C)c1ccc(C2CCN(c3ncc(CC(C)C)cn3)CC2)cc1` [Example 10.201] reads 340 nM; that for `CCCCOc1ccc(N2CCC(c3ccc([C@H](C)NC(C)=O)cc3)CC2)cc1C` [Example 8.40], 1400 nM.
Take `CCOc1ccc(N2CCC(c3ccc([C@H](C)NC(C)=O)cc3)CC2)cc1Cl` [Example 8.61]: the IC50 was determined as 300 nM.
In the case of `CC(=O)N[C@@H](C)c1ccc(C2CCN(c3ccc(OCC4CCCCO4)cc3)CC2)cc1` (some centres unmarked) [Example 9.32] it was 990 nM.
The result for `CCOc1ccc(N2CCC(c3ccc([C@H](C)NC(=O)c4cnco4)cc3)CC2)cc1` [Example 6.25] reads 340 nM; that for `CC(=O)N[C@@H](C)c1ccc(C2CCN(c3ccc(Cl)c(F)c3)CC2)cc1` [Example 1.161], 640 nM; that for `CC(=O)N[C@@H](C)c1ccc(C2CCN(c3ccnc(OCC4CCC4)c3)CC2)cc1` [Example 19.11], 140 nM.
Consider `CC(=O)N[C@@H](C)c1ccc(C2CCN(c3ncc(-c4cccc5cc[nH]c45)cn3)CC2)cc1` [Example 10.118], for which the IC50 is 150 nM.
In the case of `CC(C)COc1ccc(N2CCC(c3ccc([C@H](C)NC(=O)N(C)C)cc3)CC2)cc1` [Example 1.122] it was 120 nM.
In the case of `CC(=O)N[C@@H](C)c1ccc(C2CCN(c3ccc(-c4ccc(C#N)s4)cn3)CC2)cc1` [Example 10.308] it was 80 nM.
As to `CCOc1ccc(N2CCC(c3ccc([C@H](C)NC(=O)c4cnc[nH]4)cc3)CC2)cc1` [Example 6.24], the IC50 was determined as 3900 nM.
For the molecule `COCCOc1cc(N2CCC(c3ccc([C@H](C)NC(C)=O)cc3)CC2)ccn1` [Example 19.3], the IC50 was determined as 700 nM.
In the case of `CCOc1ccc(N2CCC(c3ccc(C(CC)NC(C)=O)cc3)CC2)c(F)c1` (centres unmarked) [Example 1.207] it was 5100 nM; in that of `CCOc1ccc(N2CCC(c3ccc([C@H](C)NC(=O)C(C)(C)OC)cc3)CC2)cc1` [Example 6.44], 25000 nM.
In the case of `CCOc1ccc(N2CCC(c3ccc([C@H](C)NC(=O)N(C)CCc4cn[nH]c4)cc3)CC2)cc1` [Example 14.61] it was 530 nM.
For `CC(=O)N[C@@H](C)c1ccc(C2CCN(c3ccc4c(c3)OCCO4)CC2)cc1` [Example 1.40], the IC50 was found to be 140 nM.
In the case of `CCOc1ccc(N2CCC(c3ccc([C@H](C)NC(=O)Nc4ccnnc4)cc3)CC2)cc1` [Example 14.58] it was 7100 nM; in that of `CC(=O)N[C@@H](C)c1ccc(C2CCN(c3cc(OCC4(C#N)CC4)ncn3)CC2)cc1` [Example 11.35], 710 nM.
The result for `CCOc1ccc(N2CCC(c3ccc([C@H](C)NC(=O)c4ccco4)cc3)CC2)cc1` [Example 6.4] reads 2100 nM; that for `CCOc1ccc(N2CCC(c3ccc([C@H](C)NC(=O)c4ccno4)cc3)CC2)cc1` [Example 6.12], 1300 nM.
As for `CC(=O)N[C@@H](C)c1ccc(C2CCN(c3nccc(-c4ccc(C#N)s4)n3)CC2)cc1` [Example 22.11], the 50% inhibitory concentration (IC50) was determined as 390 nM.
In the case of `C[C@H](NC(=O)N(C)C)c1ccc(C2CCN(c3ccc(OCC4CC4)cc3F)CC2)cc1` [Example 1.84] it was 180 nM.
Regarding `CCOc1ccc(N2CCC(c3ccc([C@H](C)NC(=O)CC)cc3)CC2)cc1` [Example 6.8], the IC50 came to 190 nM.
On to `CC(=O)N[C@@H](C)c1ccc(C2CCN(c3csc(-c4ccc(C(F)(F)F)cn4)n3)CC2)cc1` [Example 34.2], for which the IC50 was found to be 40 nM.
Consider `CCOc1ccc(N2CCC(c3ccc([C@H](C)NC(=O)c4ccns4)cc3)CC2)cc1` [Example 6.26], for which the IC50 came to 280 nM.
For `COc1cc(OC2CC2)ccc1N1CCC(c2ccc([C@H](C)NC(=O)N(C)C)cc2)CC1` [Example 1.106], the IC50 amounted to 170 nM.
As to `CCOC(=O)C1(Oc2ccc(N3CCC(c4ccc([C@H](C)NC(C)=O)cc4)CC3)cc2)CCC1` [Example 8.10], the half-inhibitory concentration (IC50) is 100 nM.
The result for `CC(=O)N[C@@H](C)c1ccc(C2CCN(c3ccnc(OCc4ccccn4)c3)CC2)cc1` [Example 19.37] reads 1200 nM; that for `CC(=O)N[C@@H](C)c1ccc(C2CCN(c3ccnc(NC4CCOCC4)n3)CC2)cc1` [Example 11.73], 15600 nM; that for `C[C@H](NC(=O)C1CC1)c1ccc(C2CCN(c3ncc(-c4ccc(C#N)cc4)cn3)CC2)cc1` [Example 10.102], 240 nM.
For the molecule `CC(=O)N[C@@H](C)c1ccc(C2CCN(c3ccnc(N4CCC4)n3)CC2)cc1` [Example 11.98], the IC50 came out at 660 nM.
With `CC(=O)N[C@@H](C)c1ccc(C2CCN(c3ccc4ccc(Cl)cc4n3)CC2)cc1` [Example 5.31], the IC50 is 1000 nM.

By IC50 is commonly meant the point on the concentration scale where inhibition reaches its midpoint.

For the origin of these results see patent US9006450B2 (Boehringer Ingelheim International GmbH, priority 2010, dated 2015).
